Reference: patent publication US20240270739A1, “Heteroaryl Fluoroalkenes As DGK Inhibitors” (Incyte Corporation, priority 2023, published 2024)

Experiments:
DGKα = biological target: T1, DGKα (Homo sapiens, UniProt P23743); experiment: In vitro DGKα inhibition assay (ADP-Glo); format: biochemical; details: His-tagged human recombinant enzyme, 0.1 nM DGKα, 50 μM ATP, 20 μM DLG, 90 minute incubation
T1 construct: His; purchased Signal Chem D21-10BH
Description: (§1) The DGKα and DGKζ biochemical reactions were performed using His-tagged human recombinant enzymes (Signal Chem, DGKα, #D21-10BH; DGKζ, #D30-10H)) and DLG (Dilauroyl-sn-glycerol) lipid substrate (Signal Chem, #D430-59). ADP-Glo assay was performed using ADP-Glo™ kinase Assay kit (Promega, #V9104). The reactions were carried out in assay buffer containing 40 mM Tris, pH 7.5, 0.1% CHAPS, 0.1% Prionex, 40 mM NaCl, 5 mM MgCl2, 1 mM CaCl2, and 1 mM DTT. DGKα reactions contained 0.1 nM DGKα, 50 μM ATP, and 20 μM DLG. And DGKζ reactions contained 0.4 nM DGKζ, 30 μM ATP, and 20 μM DLG.
(§2) For compound inhibition studies, 40 nL test compound in DMSO was added to wells of white polystyrene plates in 384-well (Greiner, #784075) or 1536-well format (Greiner, #782075). Compounds were added with top concentration of 2 mM with 11 point, 3-fold dilution series. Enzyme solution (contains 2×DGK enzyme concentration in 1× assay buffer) was added to the plate in 2 μL/well volume, followed by 2 μL/well of substrate solution (contains 2× concentration of ATP and DLG substrate in 1× assay buffer). Plates were then centrifuged for 1 min at 1200 RPM and sealed or lidded. For 4 μL reaction volume, test compounds were therefore diluted 100× to final top concentration of […]. After 90 minute incubation, reactions were quenched by addition of 2 μL/well Promega ADP-Glo Reagent, followed by centrifugation and lidding. After 60 min incubation, 2 μL/well Promega Kinase Detection Reagent was added, plates centrifuged, and incubated for 30 min. Plates were then read using Luminescence method on BMG PHERAstar FSX plate reader. Percent inhibition was calculated and IC50s were determined using 4-parameter fit in Genedata Screener. Labcyte Echo acoustic dispenser was used for compound addition, and Formulatrix Tempest liquid handler was used for all reagent dispenses. The compounds of the disclosure were tested in one or more of the assays described above, and the resulting data are shown in Table A.

DGKζ = biological target: T2, DGKζ (Homo sapiens, UniProt Q13574); experiment: In vitro DGKζ inhibition assay (ADP-Glo); format: biochemical; details: His-tagged human recombinant enzyme, 0.4 nM DGKζ, 30 μM ATP, 20 μM DLG, 90 minute incubation
T2 construct: His; purchased Signal Chem D30-10H
Description: as §1, §2

T1 sequence (P23743 whole entry): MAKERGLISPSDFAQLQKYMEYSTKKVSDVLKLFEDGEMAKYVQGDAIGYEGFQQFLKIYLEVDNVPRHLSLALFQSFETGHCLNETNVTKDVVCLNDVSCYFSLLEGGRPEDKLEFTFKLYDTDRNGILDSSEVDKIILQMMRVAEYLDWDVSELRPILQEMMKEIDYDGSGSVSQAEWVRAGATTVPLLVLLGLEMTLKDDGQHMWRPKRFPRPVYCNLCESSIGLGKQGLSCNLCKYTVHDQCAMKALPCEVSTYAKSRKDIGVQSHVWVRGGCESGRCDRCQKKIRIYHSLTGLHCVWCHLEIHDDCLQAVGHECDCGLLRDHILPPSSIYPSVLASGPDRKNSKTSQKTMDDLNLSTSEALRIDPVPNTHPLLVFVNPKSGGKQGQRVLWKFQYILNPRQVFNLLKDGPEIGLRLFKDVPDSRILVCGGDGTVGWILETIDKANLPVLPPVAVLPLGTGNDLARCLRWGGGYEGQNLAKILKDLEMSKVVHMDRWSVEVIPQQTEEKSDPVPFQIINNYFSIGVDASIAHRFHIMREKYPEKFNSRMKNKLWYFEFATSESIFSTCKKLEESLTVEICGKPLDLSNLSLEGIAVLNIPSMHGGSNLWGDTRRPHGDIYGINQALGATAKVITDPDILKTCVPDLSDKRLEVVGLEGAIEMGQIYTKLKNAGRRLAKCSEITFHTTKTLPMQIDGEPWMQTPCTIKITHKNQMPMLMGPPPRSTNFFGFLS
T2 sequence (Q13574 whole entry): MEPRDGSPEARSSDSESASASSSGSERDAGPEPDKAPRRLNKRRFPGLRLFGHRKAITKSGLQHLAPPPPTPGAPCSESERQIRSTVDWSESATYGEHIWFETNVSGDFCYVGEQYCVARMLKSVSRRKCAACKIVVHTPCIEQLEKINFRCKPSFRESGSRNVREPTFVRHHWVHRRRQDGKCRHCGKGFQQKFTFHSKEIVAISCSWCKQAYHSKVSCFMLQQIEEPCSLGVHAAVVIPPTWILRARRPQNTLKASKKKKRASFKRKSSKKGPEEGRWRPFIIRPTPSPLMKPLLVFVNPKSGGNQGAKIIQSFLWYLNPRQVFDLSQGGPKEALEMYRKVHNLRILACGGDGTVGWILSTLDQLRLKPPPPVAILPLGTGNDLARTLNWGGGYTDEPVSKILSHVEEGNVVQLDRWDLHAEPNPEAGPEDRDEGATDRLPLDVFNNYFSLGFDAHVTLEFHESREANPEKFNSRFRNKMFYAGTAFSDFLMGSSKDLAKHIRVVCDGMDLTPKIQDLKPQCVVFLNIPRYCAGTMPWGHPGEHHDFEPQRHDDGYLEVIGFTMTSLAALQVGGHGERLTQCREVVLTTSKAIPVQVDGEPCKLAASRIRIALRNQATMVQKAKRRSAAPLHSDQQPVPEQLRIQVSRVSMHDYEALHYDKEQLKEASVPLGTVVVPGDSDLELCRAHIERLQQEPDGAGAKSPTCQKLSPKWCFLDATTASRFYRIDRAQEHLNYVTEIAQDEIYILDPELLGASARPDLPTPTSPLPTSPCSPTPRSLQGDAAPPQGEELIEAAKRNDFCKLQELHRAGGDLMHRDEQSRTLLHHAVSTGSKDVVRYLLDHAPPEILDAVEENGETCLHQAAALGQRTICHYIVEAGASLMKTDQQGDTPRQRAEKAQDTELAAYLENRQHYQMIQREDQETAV

| IC50 (DGKα) | IC50 (DGKζ) | SMILES |
| --- | --- | --- |
| ≤ 20 nM | 20 to 200 nM | F/C(=C\c1ccc(Oc2cccc(F)c2F)c(Cl)c1N1CCCC2(CCN(CC3CC3)CC2)C1)c1ccn(-c2ccnnc2)n1 [Example 22, (Z)-2-(2-Chloro-3-(2,3-difluorophenoxy)-6-(2-fluoro-2-(1-(pyridazin-4-yl)-1H-pyrazol-3-yl)vinyl)phenyl)-9-(cyclopropylmethyl)-2,9-diazaspiro[5.5]undecane] |
| 20 to 200 nM | ≤ 20 nM | OCCN1CCC2(CCCN(c3c(/C=C(\F)c4csc(-c5ccnnc5)n4)ccc(Oc4ccccc4)c3C(F)(F)F)C2)CC1 [Example 23, (Z)-2-(2-(6-(2-Fluoro-2-(2-(pyridazin-4-yl)thiazol-4-yl)vinyl)-3-phenoxy-2-(trifluoromethyl)phenyl)-2,9-diazaspiro[5.5]undecan-9-yl)ethan-1-ol] |
| 20 to 200 nM | ≤ 20 nM | CCN1CCC2(CCCN(c3c(/C=C(\F)c4ccn(-c5ccnnc5)n4)ccc(Oc4ccccc4)c3C(F)(F)F)C2)CC1 [Example 24, (Z)-9-Ethyl-2-(6-(2-fluoro-2-(1-(pyridazin-4-yl)-1H-pyrazol-3-yl)vinyl)-3-phenoxy-2-(trifluoromethyl)phenyl)-2,9-diazaspiro[5.5]undecane] |
